In patent US20020103111A1, “Inhibitors of MAdCAM-1-mediated interactions and methods of use therefor” (Millennium Pharmaceuticals, Inc., priority 1996, published 2002):
Read-outs that look alike come from different tables or passages of the source. Bridge positions count the residues as written; N and C are the ends. Square brackets hold non-standard residues; d marks the D form. Ends that are not written are not given here. Peptide text beside a SMILES is read from it. * marks the point of attachment. Butanoyl(4-pyren-1-yl) = O=C(CCCc1ccc2ccc3cccc4ccc1c2c34)*; Cyclopentanecarbonyl = O=C(C1CCCC1)*; NMeL = CN[C@@H](CC(C)C)C(=O)O

Target: T1, murine MAdCAM-1 (MAdCAM-1/mCk fusion protein); α4β7-bearing HUT 78 cells (Homo sapiens, UniProt P13612+P26010)
T1 construct: host or cells: HUT 78 cells (endogenous α4β7); The MAdCAM-1/mCk partner was made in house in baculovirus-infected Sf9 insect cells, used as neat supernatant and captured by rat anti-mCk antibody
Assay: Adhesion of HUT 78 cells to MAdCAM-1/mCk fusion protein bound via capture antibody
Assay type: cell-based
Details: for % Adhesion Inhibition 500 μM: 500 μM compound; for % Adhesion Inhibition 500 μM / inhibition at 500 µM: Mn2+ activated; for IC50: HUT 78 cell adhesion to MAdCAM-1/mCk, average of two determinations; for inhibition at 500 µM: HuT78, 500 μM compound, read-out: % Adhesion Inhibition 500 μM
Procedure: The compounds of the present invention were evaluated for their biological properties.
A soluble fusion protein comprising murine MAdCAM-1 was produced in a baculovirus expression system and used in the adhesion assay. A fusion gene in which sequences encoding the signal peptide and extracellular domain of murine MAdCAM-1 were fused to sequences encoding a constant region of the murine kappa light chain (mCk) was constructed, and cloned into a baculovirus shuttle vector. Fusion protein produced from the resulting construct contained the integrin binding sequences of murine MAdCAM-1 at the amino-terminus, and the mCk sequence at the carboxy-terminus. Recombinant baculovirus encoding the fusion protein was harvested from infected Sf9 insect cells.
Human T-cell lymphoma cells (HUT 78 cells) activated with Mn^+2 were used for the adhesion assay in a 96-well format. HUT 78 cells were labelled by preincubation with ECECF-AM stain (Molecular Probes). Assays were conducted in a final volume of 200 μl. The adhesion of HUT 78 cells to MAdCAM-1/mCk fusion protein bound to wells via rat anti-mCk capture antibody was assessed in the presence or absence of each compound. […] Percent inhibition and IC50 values were determined.
HUT 78 cells (a human T cell lymphoma line; American Type Culture Collection, Accession No. ATCC TIB 161) were maintained in culture for up to one month in RPMI 1640 supplemented with 10% FCS, 20 mM HEPES, and Pen-Strep (1:100). Just prior to use in adhesion assays, cells were labeled with BCECF-AM as follows: 1×10^7 cells were pelleted at 1000 rpm for 10 minutes and resuspended in 25 mL cold PBS (Phosphate Buffered Saline). The cells were pelleted again, resuspended in cold PBS, and pelleted again. The cell pellet was resuspended in 25 ml PBS and labeled with 50 μl BCECF-AM (1 μg/μL in DMSO) for 30 minutes at 37° C. (BCECF-AM; 2′,7′-bis-(2-carboxyethyl)-5-(and-6)-carboxyflourescein, acetoxymethyl ester). The labeled cells were pelleted at 700 rpm for 10 minutes, resuspended in 25 ml cold Assay Buffer and pelleted.
The assay was performed in a 96-well format. Plates were coated overnight at 4° C. with 53 μl/well of a 5 μg/mL solution of rat anti-mCk in carbonate buffer. The plates were blocked for 1 hour at 37° C. with 100 μL/well of 1% BSA in PBS. The BSA/PBS solution was removed, and 50 μL of MAdCAM-mCk supernatant was added neat to each well. The assay was conducted under conditions in which capture antibody was the limiting reagent.
Cell adhesion was measured in the presence or absence of compounds. The compounds were resuspended in 100% DMSO, subsequently diluted 1:10 in water, and finally diluted again 1:10 in the assay: 50 μL of 2X Assay Bufler, 30 μL water, 20 μL of compound were added to each well. […] Cell adhesion occurred in 30 minutes at ambient temperature, after which plates were washed with 50 mM Tris/2 mM MnCl2, pH 7.2 using an EL 404 Microplate Autowasher (BIO-TEK Instruments) using the following wash parameters: wash volume=500 μL; two wash cycles; wash depth=80; aspirating after each wash.
Additional determinations were conducted as needed, so that each IC50 was determined over a range which encompassed the IC50. Over this range, Four different concentrations were tested in duplicate.
For each compound, a ratio was determined as follows: An average of the readings from duplicate wells was divided by an average of eight control wells (adhesion in the absence of any compound). […] In addition, the concentration (μM) of compound used was plotted against the resulting ratios.
The IC50 was then determined using Kaleidograph software (Abelbeck Software). The complete procedure was repeated again using duplicate wells for each point.

[1] = HuT78, read-out: % Adhesion Inhibition

In the case of “Ac-Arg-Gly-Leu-Asp-Thr-Ser-Leu-Gly (Ac-RGLDTSLG; not fully specified (C-terminus); printed as Ac-Arg-Gly-Leu-Asp-Thr-Ser-Leu-Gly) [Example 59]”, the “% Adhesion Inhibition 500 μM” value (HUT 78 cells) is reported as 75%.
CC(C)C[C@H](NC(=O)[C@H](CO)NC(=O)[C@@H](NC(=O)[C@H](CC(=O)O)NC(=O)[C@H](CC(C)C)NC(=O)c1cc(-c2ccccc2)cc(-c2ccccc2)c1)[C@@H](C)O)C(N)=O [Example 32, Dphb-Leu-Asp-Thr-Ser-Leu] showed an IC50 (read-out: IC50) of 15 µM.
CC(C)C[C@H](NC(=O)[C@H](CO)NC(=O)[C@@H](NC(=O)[C@H](CC(=O)O)NC(=O)CCCc1ccc2ccc3cccc4ccc1c2c34)[C@@H](C)O)C(N)=O [Example 51, Pba-Asp-Thr-Ser-Leu] ({Butanoyl(4-pyren-1-yl)}-DTSL-NH2) was tested, and the inhibition at 100 µM [1] was 100% and the IC50 (IC50 (μM)) was 13.3 µM.
Work on CC(C)C[C@H](NC(=O)[C@H](CO)NC(=O)[C@@H](NC(=O)[C@H](CC(=O)O)NC(=O)[C@H](CC(C)C)NC(=O)C(c1ccccc1)(c1ccccc1)c1ccccc1)[C@@H](C)O)C(N)=O [Example 28, Tpa-Leu-Asp-Thr-Ser-Leu] yielded an IC50 (read-out: IC50) of 0.3 µM.
For CC(C)C[C@H](NC(=O)[C@H](CO)NC(=O)[C@@H](NC(=O)[C@H](CC(=O)O)NC(=O)[C@H](CC(C)C)NC(=O)c1ccc2cc3ccccc3cc2c1)[C@@H](C)O)C(N)=O [Example 38, 2-Anc-Leu-Asp-Thr-Ser-Leu], the IC50 (read-out: IC50) was 5.4 µM.
With “Ac-Arg-Val-His-Trp-Arg-Gly-Leu-Asp-Thr-Ser-Leu-Gly-Ser-Val-Gln (Ac-RVHWRGLDTSLGSVQ; not fully specified (C-terminus); printed as Ac-Arg-Val-His-Trp-Arg-Gly-Leu-Asp-Thr-Ser-Leu-Gly-Ser-Val-Gln) [Example 62]” the “% Adhesion Inhibition 500 μM” value (HUT 78 cells) was 88%.
For CC(C)C[C@H](NC(=O)[C@H](CO)NC(=O)[C@@H](NC(=O)[C@H](CC(=O)O)NC(=O)[C@H](CC(C)C)NC(=O)C1C(C)(C)C1(C)C)[C@@H](C)O)C(N)=O [Example 25, Tpc-Leu-Asp-Thr-Ser-Leu], the IC50 (read-out: IC50) was 121 µM and the inhibition at 500 µM (HUT 78 cells) was 39%.
CC(C)C[C@H](NC(=O)[C@H](CO)NC(=O)[C@@H](NC(=O)[C@H](CC(=O)O)NC(=O)C1CCCC1)[C@@H](C)O)C(N)=O [Example 50, Cpc-Asp-Thr-Ser-Leu] (Cyclopentanecarbonyl-DTSL-NH2) gave an IC50 (read-out: IC50) of 8.9 µM.
Compound CC(C)C[C@H](NC(=O)[C@H](CO)NC(=O)[C@@H](NC(=O)[C@H](CC(=O)O)NC(=O)[C@H](CC(C)C)NC(=O)Cc1ccc2ccc3cccc4ccc1c2c34)[C@@H](C)O)C(N)=O [Example 29, Paa-Leu-Asp-Thr-Ser-Leu] has an IC50 (IC50 (μM)) of 0.5 µM.
CC(C)C[C@H](NC(=O)[C@H](CO)NC(=O)[C@@H](NC(=O)[C@H](CC(=O)O)NC(=O)[C@H](CC(C)C)NC(=O)CCCc1ccc2ccc3cccc4ccc1c2c34)[C@@H](C)O)C(N)=O [Example 23, Pba-Leu-Asp-Thr-Ser-Leu] was tested, and the inhibition at 50 µM [1] was 88% and the IC50 (IC50 (μM)) was 2.8 µM.
C[C@@H](O)[C@H](NC(=O)[C@H](CC(=O)O)NC(=O)CCCc1ccc2ccc3cccc4ccc1c2c34)C(N)=O [Example 53, Pba-Asp-Thr] gave an inhibition at 100 µM [1] of 100% and an IC50 (IC50 (μM)) of 13.5 µM.
CC(=O)N[C@@H](CCCNC(=N)N)C(=O)NCC(=O)N[C@@H](CC(C)C)C(=O)N[C@@H](CC(=O)O)C(=O)N[C@H](C(=O)N[C@@H](CO)C(N)=O)[C@@H](C)O [Example 12, Ac-Arg-Gly-Leu-Asp-Thr-Ser] (Ac-RGLDTS-NH2) was tested, and the IC50 (read-out: IC50) was 1790 µM and the inhibition at 500 µM (HUT 78 cells) was 31%.
With “NH2-His-Trp-Arg-Gly-Leu-Asp-Thr-Ser-Leu-Gly-Ser-Val (H-HWRGLDTSLGSV; not fully specified (C-terminus); printed as NH2-His-Trp-Arg-Gly-Leu-Asp-Thr-Ser-Leu-Gly-Ser-Val) [Example 56]” the “% Adhesion Inhibition 500 μM” value (HUT 78 cells) was 80%.
Compound CC(C)C[C@H](NC(=O)[C@H](CO)NC(=O)[C@@H](NC(=O)[C@H](C)NC(=O)[C@H](CC(C)C)NC(=O)CCCc1ccc2ccc3cccc4ccc1c2c34)[C@@H](C)O)C(N)=O [Example 39, Pba-Leu-Ala-Thr-Ser-Leu] ({Butanoyl(4-pyren-1-yl)}-LATSL-NH2) has an inhibition at 250 µM [1] of 100% and an IC50 (IC50 (μM)) of 28 µM.
CC(=O)N[C@H]1CSSC[C@@H](C(N)=O)NC(=O)CNC(=O)[C@H](CC(C)C)NC(=O)[C@H](CO)NC(=O)[C@H]([C@@H](C)O)NC(=O)[C@H](CC(=O)O)NC(=O)[C@H](CC(C)C)NC(=O)CNC1=O [Example 5] (Ac-CGLDTSLGC-NH2; disulfide 1-9) showed an inhibition at 200 µM (HuT78, @200 μM compound, HUT 78 cells) of 45%.
CCCCCCCc1ccc(C(=O)N[C@@H](CC(C)C)C(=O)N[C@@H](CC(=O)O)C(=O)N[C@H](C(=O)N[C@@H](CO)C(=O)N[C@@H](CC(C)C)C(N)=O)[C@@H](C)O)cc1 [Example 22, Hbz-Leu-Asp-Thr-Ser-Leu] showed an IC50 (read-out: IC50) of 401 µM and an inhibition at 500 µM (HUT 78 cells) of 51%.
For “NH2-Trp-Arg-Gly-Leu-Asp-Thr-Ser-Leu-Gly-Ser (H-WRGLDTSLGS; not fully specified (C-terminus); printed as NH2-Trp-Arg-Gly-Leu-Asp-Thr-Ser-Leu-Gly-Ser) [Example 55]”, the “% Adhesion Inhibition 500 μM” value (HUT 78 cells) was 76%.
For “NH2-Arg-Val-His-Trp-Arg-Gly-Leu-Asp-Thr-Ser-Leu-Gly-Ser-Val-Gln (H-RVHWRGLDTSLGSVQ; not fully specified (C-terminus); printed as NH2-Arg-Val-His-Trp-Arg-Gly-Leu-Asp-Thr-Ser-Leu-Gly-Ser-Val-Gln) [Example 57]”, the “% Adhesion Inhibition 500 μM” value (HUT 78 cells) was 90%.
With CC(=O)N(C)[C@@H](CC(C)C)C(=O)N[C@@H](CC(C)C)C(=O)N[C@@H](CC(=O)O)C(=O)N[C@H](C(=O)N[C@@H](CO)C(=O)N[C@@H](CC(C)C)C(N)=O)[C@@H](C)O [Example 17, Ac-MeLeu-Leu-Asp-Thr-Ser-Leu] (Ac-[NMeL]LDTSL-NH2) the inhibition at 500 µM (HUT 78 cells) was 28%.
In the case of “Ac-Trp-Arg-Gly-Leu-Asp-Thr-Ser-Leu-Gly-Ser (Ac-WRGLDTSLGS; not fully specified (C-terminus); printed as Ac-Trp-Arg-Gly-Leu-Asp-Thr-Ser-Leu-Gly-Ser) [Example 60]”, the “% Adhesion Inhibition 500 μM” value (HUT 78 cells) is reported as 71%.
CC(=O)NCC(=O)N[C@@H](CC(C)C)C(=O)N[C@@H](CC(=O)O)C(=O)N[C@H](C(=O)N[C@@H](CO)C(=O)N[C@@H](CC(C)C)C(N)=O)[C@@H](C)O [Example 9, Ac-Gly-Leu-Asp-Thr-Ser-Leu] (Ac-GLDTSL-NH2) gave an inhibition at 500 µM (HUT 78 cells) of 58%.
For C[C@@H](O)[C@H](NC(=O)[C@H](CC(=O)O)NC(=O)c1ccc2ccc3cccc4ccc1c2c34)C(N)=O [Example 52, Pca-Asp-Thr], the IC50 (read-out: IC50) was 11 µM.
In the case of CC(C)C[C@H](NC(=O)[C@H](CO)NC(=O)[C@@H](NC(=O)[C@H](CC(=O)O)NC(=O)[C@H](CC(C)C)NC(=O)CC(c1ccccc1)(c1ccccc1)c1ccccc1)[C@@H](C)O)C(N)=O [Example 37, Tphp-Leu-Asp-Thr-Ser-Leu], the IC50 (read-out: IC50) is reported as 14 µM.
Compound CC(C)C[C@H](NC(=O)[C@H](CO)NC(=O)[C@@H](NC(=O)[C@H](CC(=O)O)NC(=O)[C@H](CC(C)C)NC(=O)CCCc1ccc2ccc3cccc4ccc1c2c34)[C@@H](C)O)C(N)=O [Example 36, Pba-Leu-Asp-Thr-Ser-Leu] has an IC50 (IC50 (μM)) of 4 µM.
CC(C)C[C@H](NC(=O)[C@H](CO)NC(=O)[C@@H](NC(=O)[C@H](CC(=O)O)NC(=O)[C@H](CC(C)C)NC(=O)Cc1ccc(-c2ccccc2)cc1)[C@@H](C)O)C(N)=O [Example 20, Bipa-Leu-Asp-Thr-Ser-Leu] showed an IC50 (read-out: IC50) of 485 µM and an inhibition at 500 µM (HUT 78 cells) of 54%.
Ac-Lle-Asp-Thr-Ser-Leu [Example 46] was tested, and the “% Adhesion Inhibition 500 μM” value (HUT 78 cells) was 17%.
